In patent US6399629B1, “Efflux pump inhibitors” (priority 1998, dated 2002):

Tested on: Pseudomonas aeruginosa PAM1001
Assay: checkerboard assay (broth microdilution): levofloxacin MIC in presence of efflux pump inhibitor
Format: cell-based
Summary of the method: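 Reduction of levofloxacin MIC by an efflux pump inhibitor measured against Pseudomonas aeruginosa PAM1001. Each microdilution well held a unique combination of levofloxacin and inhibitor (max 40 μg/mL) in MHB, inoculum 5×10^5 CFU/mL. Readout after 20 h, 35° C: OD650 plus visual inspection.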

Compound	Levofloxacin MIC Against P. aerugiuosa PAM1001 in Presence of Efflux Pump Inhibitor (EPI), Minimum Inhibitory Concentration (EPI Conc. 0 μg/mL) [µg/mL]	Levofloxacin MIC Against P. aerugiuosa PAM1001 in Presence of Efflux Pump Inhibitor (EPI), Minimum Inhibitory Concentration (EPI Conc. 0.625 μg/mL) [µg/mL]	Levofloxacin MIC Against P. aerugiuosa PAM1001 in Presence of Efflux Pump Inhibitor (EPI), Minimum Inhibitory Concentration (EPI Conc. 1.25 μg/mL) [µg/mL]	Levofloxacin MIC Against P. aerugiuosa PAM1001 in Presence of Efflux Pump Inhibitor (EPI), Minimum Inhibitory Concentration (EPI Conc. 2.5 μg/mL) [µg/mL]	Levofloxacin MIC Against P. aerugiuosa PAM1001 in Presence of Efflux Pump Inhibitor (EPI), Minimum Inhibitory Concentration (EPI Conc. 5 μg/ mL) [µg/mL]	Levofloxacin MIC Against P. aerugiuosa PAM1001 in Presence of Efflux Pump Inhibitor (EPI), Minimum Inhibitory Concentration (EPI Conc. 10 μg/mL) [µg/mL]	Levofloxacin MIC Against P. aerugiuosa PAM1001 in Presence of Efflux Pump Inhibitor (EPI), Minimum Inhibitory Concentration (EPI Conc. 20 μg/mL) [µg/mL]	Levofloxacin MIC Against P. aerugiuosa PAM1001 in Presence of Efflux Pump Inhibitor (EPI), Minimum Inhibitory Concentration (EPI Conc. 40 μg/mL) [µg/mL]
NCC(=O)N[C@H]1CN[C@H](C(=O)N[C@H](CCc2ccccc2)CSc2cnc3ccccc3c2)C1 [Compound M53, (2S,4R)-4-(2-Aminoacetamideo)-N-[(1R)-3-phenyl-1-[(3-quinolythio)methyl]propyl]-2-pyrrolidinecarboxamide]	4	4	4	4	4	4	0.06	0.03
NCC(=O)N[C@H]1CN[C@H](C(=O)N[C@H](CCc2ccccc2)COc2ccc3ccccc3n2)C1 [Compound M54, (2S,rR)-4-(2-Aminoacetamido)-N-[(1R)-3-phenyl-1-[(2-quinolyloxy)methyl]propyl]-2-pyrrolidinecarboxamide]	4	4	4	4	4	0.125	0.06	0.03
NCC(=O)N[C@H]1CN[C@H](C(=O)N[C@H](CCc2ccccc2)CSc2ccc3ccccc3n2)C1 [Compound M55, (2S,4R)-4-(2-Aminoacetamido)-N-[(1R)-3-phenyl-1-[(2-quinolythio)methyl]propyl]-2-pyrrolidinecarobxamide]	4	4	4	4	4	2	1	0.06
CC(C)C[C@H](COc1cnc2ccccc2c1)NC(=O)[C@H]1C[C@H](CN)CN1 [Compound M59, (2R,4R)-4-(Aminomethyl)-N-[(1R)-3-methyl-1-[(3-quiolyloxy)methyl]butyl]-2-pyrrolidinecarboxamide]	4	4	4	4	4	1	0.5	0.125
Cc1ccc2ncc(C(=O)N[C@@H](CCc3ccccc3)CNC(=O)[C@H]3C[C@H](CN)CN3)cc2c1 [Compound M62, (2R,4R)-4-(Aminomethyl)-N-[(2S)-2-(6-methyl-3-quinolylcarboxamido)-4-phenylbutyl]-2-pyrrolidinecaroxamide]	4	4	4	4	4	2	0.5	0.015
